In ChEMBL document CHEMBL1126261, “Synthesis and antimuscarinic properties of some N-substituted 5-(aminomethyl)-3,3-diphenyl-2(3H)-furanones” (J Med Chem, 1992):
Values joined by “and” are separate entries in the source; they are usually repeats but may differ in a detail not shown here. Equal values may be shown once.

Target: Muscarinic acetylcholine receptor M3 (Cavia porcellus) (UniProt Q8VH26)
Conditions: Urinary bladder
Description: The compound was tested for urinary bladder contraction ability in guinea pig.

Chain of Muscarinic acetylcholine receptor M3 (Cavia porcellus) (Q8VH26 1-587): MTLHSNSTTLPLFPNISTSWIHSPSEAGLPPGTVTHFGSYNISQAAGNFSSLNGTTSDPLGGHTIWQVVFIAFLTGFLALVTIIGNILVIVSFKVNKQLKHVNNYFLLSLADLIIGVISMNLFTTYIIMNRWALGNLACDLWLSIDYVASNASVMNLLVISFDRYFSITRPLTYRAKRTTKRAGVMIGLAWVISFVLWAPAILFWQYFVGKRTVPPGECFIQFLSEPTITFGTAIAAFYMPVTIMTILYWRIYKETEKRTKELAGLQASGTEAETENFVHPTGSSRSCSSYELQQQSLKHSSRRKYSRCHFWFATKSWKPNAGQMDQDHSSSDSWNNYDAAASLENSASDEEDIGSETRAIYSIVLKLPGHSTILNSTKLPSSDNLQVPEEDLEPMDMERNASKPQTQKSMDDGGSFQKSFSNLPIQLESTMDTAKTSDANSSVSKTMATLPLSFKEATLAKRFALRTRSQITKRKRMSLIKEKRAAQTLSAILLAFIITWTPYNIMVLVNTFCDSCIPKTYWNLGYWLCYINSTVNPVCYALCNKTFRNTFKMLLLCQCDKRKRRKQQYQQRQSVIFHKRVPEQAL

| SMILES | ID50 |
| --- | --- |
| CN1[C@@H]2CC[C@H]1C[C@@H](OC(=O)C(CO)c1ccccc1)C2 (stereo not given in full) | 0.15 mg/kg |
| O=C1OC(Cn2cccn2)CC1(c1ccccc1)c1ccccc1 (stereo not given) | > 10 mg/kg |
| CCc1nccn1CC1CC(c2ccccc2)(c2ccccc2)C(=O)O1 (stereo not given) | 20 mg/kg and 8.5 mg/kg |
| CC(C)c1nccn1CC1CC(c2ccccc2)(c2ccccc2)C(=O)O1 (stereo in doubt; 22) | 3.6 mg/kg |
| O=C1OC(Cn2cc[n+]3c2CCC3)CC1(c1ccccc1)c1ccccc1 (stereo not given) | 2.1 mg/kg |
| C[n+]1ccn(CC2CC(c3ccccc3)(c3ccccc3)C(=O)O2)c1C(C)(C)C (stereo not given) | 0.28 mg/kg |
| CC1CCC[n+]2ccn(CC3CC(c4ccccc4)(c4ccccc4)C(=O)O3)c21 (stereo not given) | 0.045 mg/kg |

Further lines, results first:

| ID50 | SMILES |
| --- | --- |
| 1.3 mg/kg | CC(C)(C)c1nccn1CC1CC(c2ccccc2)(c2ccccc2)C(=O)O1 (stereo not given) |
| 30 mg/kg | CC(C)c1nccn1CC1CC(c2ccccc2)(c2ccccc2)C(=O)O1 (stereo in doubt; 44) |
| 5.2 mg/kg | O=C1OC(Cn2cc[n+]3ccccc23)CC1(c1ccccc1)c1ccccc1 (stereo not given) |
| 1.9 mg/kg | CC(C)c1nccn1C[C@H]1CC(c2ccccc2)(c2ccccc2)C(=O)O1 |
| 12.5 mg/kg | CCCc1nccn1CC1CC(c2ccccc2)(c2ccccc2)C(=O)O1 (stereo not given) |
| 29 mg/kg | Cc1nccn1CC1CC(c2ccccc2)(c2ccccc2)C(=O)O1 (stereo not given) |
| 0.9 mg/kg | CCCc1n(CC2CC(c3ccccc3)(c3ccccc3)C(=O)O2)cc[n+]1C (stereo not given) |

Target: Muscarinic acetylcholine receptor (Homo sapiens) (UniProt P20309+P08173+P11229+P08172+P08912)
Conditions: not given

| SMILES | ID50 |
| --- | --- |
| O=C1OC(Cn2cccn2)CC1(c1ccccc1)c1ccccc1 (stereo not given) | 3.8 mg/kg |
| CCc1n(CC2CC(c3ccccc3)(c3ccccc3)C(=O)O2)cc[n+]1C (stereo not given) | 0.67 mg/kg |
| CN(C)CC1CC(c2ccccc2)(c2ccccc2)C(=O)O1 (stereo not given) | 61.6 mg/kg |
| CC(C)c1n(CC2CC(c3ccccc3)(c3ccccc3)C(=O)O2)cc[n+]1C (stereo not given) | 0.02 mg/kg |
| CC(C)c1nccn1CC1CC(c2ccccc2)(c2ccccc2)C(=O)O1 (stereo in doubt; 22) | 152 mg/kg |
| O=C1OC(Cn2cc[n+]3c2CCC3)CC1(c1ccccc1)c1ccccc1 (stereo not given) | 5.5 mg/kg |
| Cc1ccc[n+]2ccn(CC3CC(c4ccccc4)(c4ccccc4)C(=O)O3)c12 (stereo not given) | 4.42 mg/kg |
| C[n+]1ccn(CC2CC(c3ccccc3)(c3ccccc3)C(=O)O2)c1C(C)(C)C (stereo not given) | 0.29 mg/kg |
| CC1CCC[n+]2ccn(CC3CC(c4ccccc4)(c4ccccc4)C(=O)O3)c21 (stereo not given) | 0.12 mg/kg |

Next, values leading:

| ID50 | SMILES |
| --- | --- |
| 0.74 mg/kg | CC(C)(C)c1nccn1CC1CC(c2ccccc2)(c2ccccc2)C(=O)O1 (stereo not given) |
| > 100 mg/kg | CC(C)c1nccn1CC1CC(c2ccccc2)(c2ccccc2)C(=O)O1 (stereo in doubt; 44) |
| 8 mg/kg | O=C1OC(Cn2cc[n+]3ccccc23)CC1(c1ccccc1)c1ccccc1 (stereo not given) |
| 167 mg/kg | CC(C)c1nccn1C[C@H]1CC(c2ccccc2)(c2ccccc2)C(=O)O1 |
| 5.3 mg/kg | CCc1nccn1C[C@H]1CC(c2ccccc2)(c2ccccc2)C(=O)O1 |
| > 100 mg/kg | CCCc1nccn1CC1CC(c2ccccc2)(c2ccccc2)C(=O)O1 (stereo not given) |
| > 100 mg/kg | CCN(CC)CC1CC(c2ccccc2)(c2ccccc2)C(=O)O1 (stereo not given) |
| 29 mg/kg | Cc1nccn1CC1CC(c2ccccc2)(c2ccccc2)C(=O)O1 (stereo not given) |
| 4.6 mg/kg | C[N+](C)(C)CC1CC(c2ccccc2)(c2ccccc2)C(=O)O1 (stereo not given) |
| 0.54 mg/kg | CCCc1n(CC2CC(c3ccccc3)(c3ccccc3)C(=O)O2)cc[n+]1C (stereo not given) |

Target: Muscarinic acetylcholine receptor M3 (Cavia porcellus) (UniProt Q8VH26)
Conditions: Urine
Description: Urinary bladder contraction ability in guinea pig by intravenous dose

| SMILES | ID50 |
| --- | --- |
| CCc1n(CC2CC(c3ccccc3)(c3ccccc3)C(=O)O2)cc[n+]1C (stereo not given) | 0.27 mg/kg |
| CN(C)CC1CC(c2ccccc2)(c2ccccc2)C(=O)O1 (stereo not given) | > 10 mg/kg |
| CC(C)c1n(CC2CC(c3ccccc3)(c3ccccc3)C(=O)O2)cc[n+]1C (stereo not given) | 0.03 mg/kg |
| Cc1ccc[n+]2ccn(CC3CC(c4ccccc4)(c4ccccc4)C(=O)O3)c12 (stereo not given) | 1.7 mg/kg |

The next lines start with the values.

| ID50 | SMILES |
| --- | --- |
| 1.3 mg/kg | CCc1nccn1C[C@H]1CC(c2ccccc2)(c2ccccc2)C(=O)O1 |
| 16.2 mg/kg | CCN(CC)CC1CC(c2ccccc2)(c2ccccc2)C(=O)O1 (stereo not given) |
| 0.64 mg/kg | C[N+](C)(C)CC1CC(c2ccccc2)(c2ccccc2)C(=O)O1 (stereo not given) |
